In ChEMBL document CHEMBL1140275, “Discovery of a novel and potent series of dianilinopyrimidineurea and urea isostere inhibitors of VEGFR2 tyrosine kinase” (Bioorg Med Chem Lett, 2005):
pIC50: −log10 of the molar value.

Key:
[1] = target: Vascular endothelial growth factor receptor 2 (Homo sapiens, UniProt P35968); test: Inhibitory concentration against human VEGFR2 kinase
HUVEC = test: Inhibitory concentration against human umbilical vein endothelial cells (HUVECs) induced by VEGF; format: functional, cell-based

Vascular endothelial growth factor receptor 2, sequence (P35968 whole entry): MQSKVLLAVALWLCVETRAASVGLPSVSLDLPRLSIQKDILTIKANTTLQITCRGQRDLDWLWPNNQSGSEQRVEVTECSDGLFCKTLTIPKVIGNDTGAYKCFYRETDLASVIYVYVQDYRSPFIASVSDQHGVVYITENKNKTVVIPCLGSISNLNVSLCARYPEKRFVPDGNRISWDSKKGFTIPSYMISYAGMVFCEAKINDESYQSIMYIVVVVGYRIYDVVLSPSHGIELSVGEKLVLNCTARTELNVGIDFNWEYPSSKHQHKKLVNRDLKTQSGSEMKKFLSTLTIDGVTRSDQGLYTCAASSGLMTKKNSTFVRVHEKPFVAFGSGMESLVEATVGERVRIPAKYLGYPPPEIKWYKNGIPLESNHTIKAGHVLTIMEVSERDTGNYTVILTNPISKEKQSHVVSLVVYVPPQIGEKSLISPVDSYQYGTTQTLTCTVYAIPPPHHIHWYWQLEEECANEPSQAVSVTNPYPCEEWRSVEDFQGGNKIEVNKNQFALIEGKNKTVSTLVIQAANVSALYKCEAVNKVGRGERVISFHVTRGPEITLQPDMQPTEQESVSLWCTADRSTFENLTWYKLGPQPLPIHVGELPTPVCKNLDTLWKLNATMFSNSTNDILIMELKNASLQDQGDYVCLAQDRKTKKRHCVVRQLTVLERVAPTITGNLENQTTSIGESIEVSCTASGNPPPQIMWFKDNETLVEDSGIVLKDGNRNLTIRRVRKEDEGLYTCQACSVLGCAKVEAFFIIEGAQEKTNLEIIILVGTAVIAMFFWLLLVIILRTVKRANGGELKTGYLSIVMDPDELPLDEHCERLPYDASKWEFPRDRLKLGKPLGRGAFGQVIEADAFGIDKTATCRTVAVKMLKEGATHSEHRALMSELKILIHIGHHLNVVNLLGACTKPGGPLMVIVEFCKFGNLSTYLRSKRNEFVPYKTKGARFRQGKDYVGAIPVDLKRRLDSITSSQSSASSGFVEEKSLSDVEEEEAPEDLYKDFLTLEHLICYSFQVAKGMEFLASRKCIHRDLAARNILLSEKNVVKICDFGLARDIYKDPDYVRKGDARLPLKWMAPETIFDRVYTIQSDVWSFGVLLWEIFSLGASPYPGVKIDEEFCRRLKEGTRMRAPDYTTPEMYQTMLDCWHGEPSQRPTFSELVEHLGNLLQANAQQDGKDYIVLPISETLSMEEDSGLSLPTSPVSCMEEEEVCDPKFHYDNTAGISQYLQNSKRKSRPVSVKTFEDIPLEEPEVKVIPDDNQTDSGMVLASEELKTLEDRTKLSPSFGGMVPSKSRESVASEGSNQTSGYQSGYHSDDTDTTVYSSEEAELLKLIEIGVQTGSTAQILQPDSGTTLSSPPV

Compound	pIC50 [1]	pIC50 (HUVEC)
CN(c1ccc(NC(=O)N2CCN(CCCN3CCOCC3)CC2)cc1)c1ccnc(Nc2ccc(CS(C)(=O)=O)cc2)n1	5.35	6.07
CCNC(=O)Nc1ccc(N(C)c2ccnc(Nc3cccc(CS(C)(=O)=O)c3)n2)cc1	7.77	8.52
CN(c1ccc(NS(=O)(=O)Cc2ccccc2)cc1)c1ccnc(Nc2cccc(CS(C)(=O)=O)c2)n1		6.46
CN(c1ccc(NC(=O)Nc2ccc(OC(F)(F)F)cc2)cc1)c1ccnc(Nc2cccc(S(N)(=O)=O)c2)n1 [GW806742X]	8.70	8.30
CN(c1ccc(NC(=N)Nc2ccccc2)cc1)c1ccnc(Nc2cccc(CS(C)(=O)=O)c2)n1		6.22
CN(c1ccc(NC(=O)Nc2cc(C(F)(F)F)ccc2F)cc1)c1ccnc(Nc2ccc(CS(C)(=O)=O)cc2)n1	8.70	8.70
CN(c1ccc(NC(=O)Nc2ccccc2)cc1)c1ccnc(Nc2cccc(S(N)(=O)=O)c2)n1		8.70
CN1CCN(Cc2ccc(NC(=O)Nc3ccc(N(C)c4ccnc(Nc5ccc(CS(C)(=O)=O)cc5)n4)cc3)cc2)CC1	8.40	8.70
CN(c1ccc(NC(=O)Nc2cc(C(F)(F)F)ccc2F)cc1)c1ccnc(Nc2ccc(S(N)(=O)=O)cc2)n1	9.00	8.10
CN(c1ccc(N/C(S)=N/c2ccccc2)cc1)c1ccnc(Nc2cccc(CS(C)(=O)=O)c2)n1		8.22
CCNC(=O)Nc1ccc(N(C)c2ccnc(Nc3ccc(CS(C)(=O)=O)cc3)n2)cc1	7.59	7.57
CN(c1ccc(NC(=O)Nc2c(Cl)cccc2Cl)cc1)c1ccnc(Nc2cccc(CS(C)(=O)=O)c2)n1 [GW809897X]	7.19	7.54
CN(c1ccc(NC(=O)Nc2ccc(OC(F)(F)F)cc2)cc1)c1ccnc(Nc2cccc(CS(C)(=O)=O)c2)n1	8.22	8.15
CN(c1ccc(NC(=O)Nc2ccc(OC(F)(F)F)cc2)cc1)c1ccnc(Nc2ccc(S(N)(=O)=O)cc2)n1	8.70	7.43
CN1CCN(C(=O)c2ccc(NC(=O)Nc3ccc(N(C)c4ccnc(Nc5ccc(CS(C)(=O)=O)cc5)n4)cc3)cc2)CC1	6.82	6.29
CN(C)CCNC(=O)Nc1ccc(N(C)c2ccnc(Nc3cccc(CS(C)(=O)=O)c3)n2)cc1	6.17	6.28
CN(c1ccc(NC(=O)Nc2cc(C(F)(F)F)ccc2F)cc1)c1ccnc(Nc2cccc(S(N)(=O)=O)c2)n1	9.00	8.00
CN(c1ccc(NC(=O)NC2CCCC2)cc1)c1ccnc(Nc2cccc(CS(C)(=O)=O)c2)n1	7.51	9.00
CN(c1ccc(NC(=O)Nc2ccccc2)cc1)c1ccnc(Nc2cccc(CS(C)(=O)=O)c2)n1		9.70
CN(c1ccc(NC(=O)NCCc2ccccc2)cc1)c1ccnc(Nc2cccc(CS(C)(=O)=O)c2)n1	7.96	8.00
CC(=O)c1ccc(NC(=O)Nc2ccc(N(C)c3ccnc(Nc4cccc(CS(C)(=O)=O)c4)n3)cc2)cc1	8.52	8.70
CN(c1ccc(NC(=O)NCCN2CCOCC2)cc1)c1ccnc(Nc2ccc(CS(C)(=O)=O)cc2)n1	6.00	6.33
CN(c1ccc(NC(=O)Cc2ccccc2)cc1)c1ccnc(Nc2cccc(CS(C)(=O)=O)c2)n1		7.31
CN(C)CCNC(=O)Nc1ccc(N(C)c2ccnc(Nc3ccc(CS(C)(=O)=O)cc3)n2)cc1	5.51	5.53
CCCCNC(=O)Nc1ccc(N(C)c2ccnc(Nc3cccc(CS(C)(=O)=O)c3)n2)cc1	7.54	8.70
CN(c1ccc(NC(=O)Oc2ccccc2)cc1)c1ccnc(Nc2cccc(CS(C)(=O)=O)c2)n1		6.65
CN(c1ccc(NC(=O)Nc2cc(C(F)(F)F)ccc2F)cc1)c1ccnc(Nc2cccc(CS(C)(=O)=O)c2)n1	7.46	8.15
